In patent US10342804B2, “Steroid compound for use in the treatment of hepatic encephalopathy” (Umecrine Cognition AB, priority 2014, dated 2019):

Experiments:
[1] = target: T1, human α5β3γ2L GABAA receptors (Homo sapiens, UniProt P28472+P31644); experiment: Whole-cell voltage-clamp electrophysiology, HEK-293 cells expressing α5β3γ2L GABAA receptors; type: cell-based; details: α5β3γ2L expressing cells
T1 construct: expressed in transfected cells; host or cells: HEK-293, permanently transfected
Protocol: (§1) For electrophysiology measurements the Dynaflow® system with the Resolve chip was used (Cellectricon, Göteborg, Sweden). HEK-293 cells were permanently transfected with vectors including the human CMV promoter for constitutive expression of the human α5, β3, and γ2L GABAA receptor subunits (α5β3γ2L) or the human α1, β2, and γ2L GABAA receptor subunits (α1β2γ2L). The cell lines used were selected for good reactivity to GABA and to THDOC. Before measurements cells were incubated for 15 min at 37° C. in 95% air+5% CO2 in extracellular solution (EC) containing the following: 137 mM NaCl, 5.0 mM KCl, 1.0 mM CaCl2, 1.2 mM MgCl2, 10 mM HEPES, and 10 mM glucose, 0.1% DMSO pH 7.4. Thereafter, detached cells were added to the EC solution in the Dynaflow chip bath.
(§2) Whole-cell voltage-clamp recordings were made at room temperature (21-23° C., −17 mV with compensation for liquid junction potential as in Haage et al., 2002; Neher, 1992). Command pulses were generate and data collected by PClamp 9.0 software, DigiData 1322A converter, and AxonPatch 200B (Axon Instruments, Foster City, Calif.). Patch electrodes (2-6 MΩ) were filled with intracellular solution (IC) including: 140 mM Cs-gluconate, 3.0 mM NaCl, 1.2 mM MgCl2, 10 mM HEPES, 1.0 mM EGTA, 2 mM Mg-ATP, 0.1% DMSO, pH 7.2.
(§3) THDOC and 3α-ethynyl-3β-hydroxyandrostan-17-one oxime were dissolved in dimethyl sulfoxide (DMSO) and thereafter diluted with EC solution to include 0.1% DMSO.
(§4) Different protocols were used for different electrophysiology measurements. As α1β2γ2L-GABAA receptors in vivo are present within the synapse a condition resembling that situation, a short application (40 ms) of a high GABA concentration (30 μM), was used. Contrary, α5β3γ2L-GABAA receptors are present extrasynaptically, thus the conditions used were long exposures (6 s) to a low GABA concentration (0.3 μM). The EC75 concentration of THDOC was used, i.e. 100 nM with studies of α1β2γ2L and 200 nM when α5β3γ2L expressing cells were evaluated. With both cell types a pre-exposure with THDOC or THDOC plus 3α-ethynyl-3β-hydroxyandrostan-17-one oxime was used before application of GABA.
(§5) Steroid effects in presence of GABA were normalized to controls in order to avoid the effects of inter- and intracellular variation in the measured parameters, each cell was used as its own control and the area under the curve (AUC) was analyzed.

[2] = target: T2, human α1β2γ2L GABAA receptors (Homo sapiens, UniProt P14867+P47870); experiment: Whole-cell voltage-clamp electrophysiology, HEK-293 cells expressing α1β2γ2L GABAA receptors; type: cell-based; details: α1β2γ2L expressing cells
T2 construct: expressed in transfected cells; host or cells: HEK-293, permanently transfected
Protocol: as §1, §2, §3, §4, §5

T2 sequence (P14867 28-456): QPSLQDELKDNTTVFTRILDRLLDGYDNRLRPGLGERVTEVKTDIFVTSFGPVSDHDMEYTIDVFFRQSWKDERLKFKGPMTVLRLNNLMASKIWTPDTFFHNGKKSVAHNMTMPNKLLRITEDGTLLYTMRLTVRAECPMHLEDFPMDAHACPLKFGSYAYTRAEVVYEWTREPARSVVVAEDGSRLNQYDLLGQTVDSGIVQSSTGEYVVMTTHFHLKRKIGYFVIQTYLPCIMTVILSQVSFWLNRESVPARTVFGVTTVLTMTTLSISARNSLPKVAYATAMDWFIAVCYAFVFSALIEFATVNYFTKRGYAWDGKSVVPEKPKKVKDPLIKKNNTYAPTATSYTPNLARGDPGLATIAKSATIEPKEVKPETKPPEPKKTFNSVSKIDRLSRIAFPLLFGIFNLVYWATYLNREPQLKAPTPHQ
T2 sequence (P47870 25-512 limits assumed): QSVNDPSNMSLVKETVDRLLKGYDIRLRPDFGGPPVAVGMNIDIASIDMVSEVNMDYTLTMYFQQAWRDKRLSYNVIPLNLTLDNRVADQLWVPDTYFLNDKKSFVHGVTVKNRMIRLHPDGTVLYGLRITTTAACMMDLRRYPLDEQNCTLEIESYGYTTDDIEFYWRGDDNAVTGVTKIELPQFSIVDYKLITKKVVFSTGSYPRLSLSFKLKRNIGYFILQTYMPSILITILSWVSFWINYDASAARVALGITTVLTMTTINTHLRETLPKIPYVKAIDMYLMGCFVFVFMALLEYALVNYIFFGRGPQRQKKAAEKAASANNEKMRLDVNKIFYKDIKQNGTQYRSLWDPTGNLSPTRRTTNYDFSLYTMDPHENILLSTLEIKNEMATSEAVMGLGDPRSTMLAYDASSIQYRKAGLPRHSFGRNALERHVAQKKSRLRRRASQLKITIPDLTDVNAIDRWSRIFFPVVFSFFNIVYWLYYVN
T2 sequence (P18507 40-475 partner): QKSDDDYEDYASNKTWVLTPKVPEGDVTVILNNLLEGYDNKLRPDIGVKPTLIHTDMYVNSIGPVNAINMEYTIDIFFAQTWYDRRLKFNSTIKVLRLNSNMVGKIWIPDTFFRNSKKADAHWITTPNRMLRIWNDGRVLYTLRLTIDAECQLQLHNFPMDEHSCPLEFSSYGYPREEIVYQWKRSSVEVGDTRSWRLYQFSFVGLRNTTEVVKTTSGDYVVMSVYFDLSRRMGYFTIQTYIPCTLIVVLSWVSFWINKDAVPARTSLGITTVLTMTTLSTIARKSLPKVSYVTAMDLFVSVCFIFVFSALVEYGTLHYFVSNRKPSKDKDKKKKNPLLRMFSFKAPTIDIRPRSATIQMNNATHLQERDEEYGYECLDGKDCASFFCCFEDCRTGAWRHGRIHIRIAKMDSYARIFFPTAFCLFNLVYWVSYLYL
T1 sequence (P31644 32-462): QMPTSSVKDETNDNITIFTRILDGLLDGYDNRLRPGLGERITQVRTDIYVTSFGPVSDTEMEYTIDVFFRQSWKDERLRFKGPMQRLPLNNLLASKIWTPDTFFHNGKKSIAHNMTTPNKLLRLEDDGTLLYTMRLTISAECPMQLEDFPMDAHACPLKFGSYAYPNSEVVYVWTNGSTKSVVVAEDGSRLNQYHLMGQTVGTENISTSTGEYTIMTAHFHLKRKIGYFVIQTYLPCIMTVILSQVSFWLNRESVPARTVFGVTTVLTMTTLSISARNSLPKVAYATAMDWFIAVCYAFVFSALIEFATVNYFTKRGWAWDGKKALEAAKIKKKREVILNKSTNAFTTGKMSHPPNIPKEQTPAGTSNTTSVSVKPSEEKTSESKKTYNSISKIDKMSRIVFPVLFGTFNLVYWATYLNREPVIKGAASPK
T1 sequence (P28472 26-473): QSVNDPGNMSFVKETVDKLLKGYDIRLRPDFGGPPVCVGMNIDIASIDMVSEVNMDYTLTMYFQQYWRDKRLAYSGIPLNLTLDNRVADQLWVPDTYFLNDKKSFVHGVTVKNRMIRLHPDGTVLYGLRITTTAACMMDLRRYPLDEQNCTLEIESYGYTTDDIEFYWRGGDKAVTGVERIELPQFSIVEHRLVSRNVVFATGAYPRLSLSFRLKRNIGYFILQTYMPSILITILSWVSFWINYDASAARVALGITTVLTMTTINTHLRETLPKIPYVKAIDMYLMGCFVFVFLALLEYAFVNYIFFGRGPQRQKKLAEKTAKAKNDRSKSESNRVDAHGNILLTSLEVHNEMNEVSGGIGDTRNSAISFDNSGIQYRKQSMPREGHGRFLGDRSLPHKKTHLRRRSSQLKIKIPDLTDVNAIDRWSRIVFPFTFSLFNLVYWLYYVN
T1 sequence (P18507 40-475 partner): as the sequence (P18507 40-475 partner) above

In the case of `C[C@]12CC[C@@H](O)C[C@H]1CC[C@@H]1[C@@H]2CC[C@]2(C)[C@@H](C(=O)CO)CC[C@@H]12` [THDOC, tetrahydrodeoxycorticosterone, reference compound], the “EC75 concentration of THDOC” value [1] is reported as 200 nM and the “EC75 concentration of THDOC” value [2] is reported as 100 nM.
